The target in the test is T1, hFAP (recombinant human Fibroblast Activation Protein) (Homo sapiens, UniProt Q12884).
T1 sequence (Q12884 26-760 limits assumed): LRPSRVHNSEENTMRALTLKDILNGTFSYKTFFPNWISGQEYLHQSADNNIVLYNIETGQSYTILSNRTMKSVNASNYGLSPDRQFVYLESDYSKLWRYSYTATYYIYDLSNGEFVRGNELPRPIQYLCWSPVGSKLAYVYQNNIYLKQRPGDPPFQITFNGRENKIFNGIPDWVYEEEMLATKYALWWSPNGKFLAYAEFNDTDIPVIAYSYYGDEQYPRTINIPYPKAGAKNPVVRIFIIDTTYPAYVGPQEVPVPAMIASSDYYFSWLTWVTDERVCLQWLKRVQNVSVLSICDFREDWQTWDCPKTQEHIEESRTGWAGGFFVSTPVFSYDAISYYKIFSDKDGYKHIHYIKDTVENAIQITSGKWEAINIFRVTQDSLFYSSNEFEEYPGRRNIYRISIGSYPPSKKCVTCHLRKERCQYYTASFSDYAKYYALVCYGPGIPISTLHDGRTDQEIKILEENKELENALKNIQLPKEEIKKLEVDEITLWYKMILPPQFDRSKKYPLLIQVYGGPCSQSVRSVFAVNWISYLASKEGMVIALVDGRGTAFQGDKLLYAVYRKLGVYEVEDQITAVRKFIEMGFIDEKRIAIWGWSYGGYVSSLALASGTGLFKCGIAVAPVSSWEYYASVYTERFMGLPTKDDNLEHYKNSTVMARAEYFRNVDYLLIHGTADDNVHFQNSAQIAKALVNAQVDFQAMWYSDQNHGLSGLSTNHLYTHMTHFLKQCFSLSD
In words: biochemical.

Usually IC50 stands for the midpoint of a concentration-inhibition curve. For `N#C[C@@H]1CC(F)(F)CN1C(=O)CNC(=O)c1ccnc2c(NC(=O)CCC(=O)NCCNC(=O)CCC(C(=O)O)N3CCN(CC(=O)O)CCN(CC(=O)O)CCN(CC(=O)O)CC3)cccc12` (stereo partly shown) [compound 1, OncoFAP-DOTAGA], the IC50 was 0.399 nM.
